The record followed here is patent US7485637B2, “Benzoyl-tetrahydropiperidine derivatives” (Hoffmann-La Roche Inc., priority 2005, dated 2009).

The target of the experiment is T1, mGlyT-1b (Mus musculus, UniProt P28571).
T1 construct: host or cells: Flp-in-CHO
T1 sequence (P28571 1-651 isoform P28571-2): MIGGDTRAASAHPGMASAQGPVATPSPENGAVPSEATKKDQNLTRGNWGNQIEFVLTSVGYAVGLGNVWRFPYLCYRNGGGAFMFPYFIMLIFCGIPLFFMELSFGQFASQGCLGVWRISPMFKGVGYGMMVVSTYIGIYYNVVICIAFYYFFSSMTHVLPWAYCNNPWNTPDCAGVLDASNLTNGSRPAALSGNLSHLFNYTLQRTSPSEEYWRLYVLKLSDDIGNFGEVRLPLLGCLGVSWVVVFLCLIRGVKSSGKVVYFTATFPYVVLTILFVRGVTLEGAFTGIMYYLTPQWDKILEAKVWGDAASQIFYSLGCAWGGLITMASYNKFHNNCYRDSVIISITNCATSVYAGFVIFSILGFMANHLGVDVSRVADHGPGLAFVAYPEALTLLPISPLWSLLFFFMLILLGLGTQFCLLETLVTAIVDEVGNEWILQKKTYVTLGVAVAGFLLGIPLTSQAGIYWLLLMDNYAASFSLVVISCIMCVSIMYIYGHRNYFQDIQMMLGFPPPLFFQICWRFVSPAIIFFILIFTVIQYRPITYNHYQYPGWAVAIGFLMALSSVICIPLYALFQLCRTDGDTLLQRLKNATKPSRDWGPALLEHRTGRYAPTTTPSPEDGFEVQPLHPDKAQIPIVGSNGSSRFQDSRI
Description: Glycine Uptake Inhibition Assay (mGlyT-1b). As to conditions: [3H]-glycine uptake, Flp-in-CHO cells transfected with mGlyT-1b cDNA, 20 min preincubation at 22° C.; read-out: IC50 (μM) at GlyT-1. The class given is cell-based. As to the method:
DMEM complete medium: Nutrient mixture F-12 (Gibco Life-technologies), fetal bovine serum (FBS) 5%, (Gibco life technologies), Penicillin/Streptomycin 1% (Gibco life technologies), Hygromycin 0.6 mg/ml (Gibco life technologies), Glutamine 1 mM Gibco life technologies)
Uptake buffer (UB): 150 mM NaCl, 10 mM Hepes-Tris, pH 7.4, 1 mM CaCl2, 2.5 mM KCl, 2.5 mM MgSO4, 10 mM (+) D-glucose.
Flp-in™-CHO (Invitrogen Cat n° R758-07) cells stably transfected with mGlyT1b cDNA.
Glycine Uptake Inhibition Assay (mGlyT-1b)
On day 1 mammalian cells, (Flp-in™-CHO), transfected with mGlyT-1b cDNA, were plated at the density of 40,000 cells/well in complete F-12 medium, without hygromycin in 96-well culture plates. On day 2, the medium was aspirated and the cells were washed twice with uptake buffer (UB). The cells were then incubated for 20 min at 22° C. with either (i) no potential competitor, (ii) 10 mM non-radioactive glycine, (iii) a concentration of a potential inhibitor. A range of concentrations of the potential inhibitor was used to generate data for calculating the concentration of inhibitor resulting in 50% of the effect (e.g. IC50, the concentration of the competitor inhibiting glycine uptake of 50%). A solution was then immediately added containing [^3H]-glycine 60 nM (11-16 Ci/mmol) and 25 μM non-radioactive glycine. The plates were incubated with gentle shaking and the reaction was stopped by aspiration of the mixture and washing (three times) with ice-cold UB. The cells were lysed with scintillation liquid, shaken 3 hours and the radioactivity in the cells was counted using a scintillation counter.
Consider `CC(C)Oc1ccc(C#N)cc1C(=O)N1CC=C(c2ccc(Cl)cc2)CC1` [Example 9, 3-[4-(4-Chloro-phenyl)-3,6-dihydro-2H-pyridine-1-carbonyl]-4-isopropoxy-benzonitrile], for which the IC50 turned out to be 0.28 µM.

With `CS(=O)(=O)c1ccc(N2CCOCC2)c(C(=O)N2CC=C(c3ccc(C(F)(F)F)cc3)CC2)c1` [Example 5, (5-Methanesulfonyl-2-morpholin-4-yl-phenyl)-[4-(4-trifluoromethyl-phenyl)-3,6 dihydro-2H-pyridin-1-yl]-methanone], the IC50 turned out to be 0.232 µM.

Consider `CS(=O)(=O)c1ccc(C2=CCN(C(=O)c3cc(S(C)(=O)=O)ccc3OC3CCCC3)CC2)cc1` [Example 8, (2-Cyclopentyloxy-5-methanesulfonyl-phenyl)-[4-(4-methanesulfonyl-phenyl)-3,6-dihydro-2H-pyridin-1-yl]-methanone], for which the half-inhibitory concentration (IC50) was 0.201 µM.

With `O=C(c1cc([N+](=O)[O-])ccc1N1CCOCC1)N1CC=C(c2ccc(Cl)cc2)CC1` [Example 2, [4-(4-Chloro-phenyl)-3,6-dihydro-2H-pyridin-1-yl]-(2-morpholin-4-yl-5-nitrophenyl) methanone], the IC50 came to 0.432 µM.

`CS(=O)(=O)c1ccc(OCC2CC2)c(C(=O)N2CC=C(c3ccc(Cl)cc3)CC2)c1` [Example 10, [4-(4-Chloro-phenyl)-3,6-dihydro-2H-pyridin-1-yl]-(2-cyclopropylmethoxy-5-methanesulfonyl-phenyl)-methanone]: the IC50 amounted to 0.056 µM.

As to `N#Cc1ccc(C2=CCN(C(=O)c3cc([N+](=O)[O-])ccc3N3CCOCC3)CC2)cc1` [Example 3, 4-[1-(2-Morpholin-4-yl-5-nitro-benzoyl)-1,2,3,6-tetrahydro-pyridin-4-yl]benzonitrile], the IC50 worked out at 0.27 µM.

Turning to `CC(C)Oc1ccc(S(C)(=O)=O)cc1C(=O)N1CC=C(c2ccc(S(C)(=O)=O)cc2)CC1` [Example 7, (2-Isopropoxy-5-methanesulfonyl-phenyl)-[4-(4-methanesulfonyl-phenyl)-3,6-dihydro-2H-pyridin-1-yl]-methanone], the IC50 amounted to 0.87 µM.

In the case of `CS(=O)(=O)c1ccc(C2=CCN(C(=O)c3cc([N+](=O)[O-])ccc3N3CCOCC3)CC2)cc1` [Example 6, [4-(4-Methanesulfonyl-phenyl)-3,6-dihydro-2H-pyridin-1-yl]-(2-morpholin-4-yl-5-nitro-phenyl)-methanone], the IC50 is 0.251 µM.

On to `O=C(c1cc([N+](=O)[O-])ccc1N1CCOCC1)N1CC=C(c2ccccc2)CC1` [Example 1, (2-Morpholin-4-yl-5-nitro-phenyl)-(4-phenyl-3,6-dihydro-2H-pyridin-1-yl)-methanone], for which the IC50 is 0.803 µM.

As for `CS(=O)(=O)c1ccc(OCC(F)(F)F)c(C(=O)N2CC=C(c3ccc(C(F)(F)F)cc3)CC2)c1` [Example 4, [5-Methanesulfonyl-2-(2,2,2-trifluoro-ethoxy)-phenyl]-[4-(4-trifluoromethyl-phenyl)3,6-dihydro-2H-pyridin-1-yl]-methanone], the IC50 was determined as 0.122 µM.
